We go through one compound from patent publication US20060211026A1, “Methods for assessing emphysema” (Roche Palo Alto LLC, priority 2005, published 2006).

Molecules are shown by their SMILES.

This experiment relates to tropoelastin. Kind of experiment: Tropoelastin ELISA in homogenized lung tissue of smoke-exposed rats. The conditions noted are these: oral daily 30 days after 8 months smoke; ATRA 3 mg/kg, R667 0.07-0.7 mg/kg; FIG. 1. The experiment is classed as in vivo, Sprague-Dawley rats. As to the method: FIG. 1 depicts the amount of tropoelastin (in ng) measured in rats after treatment as set forth in Example 1(B).
(B) Adult male Sprague-Dawley rats were exposed daily to 10 cigarettes/rat for 8 months (control rats were exposed to air) to establish emphysema lesions. […] Supernatant from homogenized lung tissue was analyzed for concentration of tropoelastin by ELISA (using rabbit anti-tropoelastin; Elastin Products Co.).

On to `CC1=C(/C=C/C(C)=C/C=C/C(C)=C/C(=O)O)C(C)(C)CCC1` [ATRA, all-trans retinoic acid, reference compound], for which the “Tropoelastin in lung tissue (effect of treatment)” value is “partially restored”.
